# Laboratory results taken from patent US20240423981A1, “TREATMENT OF HCM WITH PYRIMIDINEDIONE COMPOUNDS” (MyoKardia, Inc., priority 2017, published 2024).
# Legend:
# healthy volunteers = experiment: Adverse events in healthy volunteers of the Phase 1 trials; type: in vivo, human
# Procedure: (§1) Three clinical studies have investigated the safety and tolerability of Compound 1 to date; conduct of 2 studies has completed and 1 study is ongoing. A double-blind, placebo-controlled, single ascending-dose study (SAD) (Compound 1-002) was conducted in healthy men. Subjects received single doses ranging from 1 mg to 48 mg. Conduct of an open-label sequential-group SAD study in subjects with clinically stable HCM (Compound 1-001) is also complete; single doses of up to 144 mg were administered. In addition, a double-blind, placebo-controlled, multiple ascending-dose (MAD) study (Compound 1-003) is being conducted in which healthy adult subjects have received multiple doses of Compound 1 up to 25 mg once daily (QD) for up to 28 days.
# [1] = system: obstructive HCM (oHCM) patients; experiment: Parts A and B of the phase 2 trial (PIONEER), pooled findings; type: in vivo, human
# Text: (§2) This is a phase 2 open-label pilot study to evaluate the efficacy, PK, PD, safety, and tolerability of Compound 1 in subjects with symptomatic HCM and LVOT obstruction. Approximately 10 adult subjects with symptomatic HCM, a resting LVOT gradient ≥30 mm Hg, and post-exercise peak LVOT gradient ≥50 mm Hg will be enrolled. The study will have a 12-week treatment phase and a 4-week washout phase (FIG. 3).
# (§3) This trial was similar to the trial described in Example 3, but will have several important differences. For example, subjects in the Phase 2-B trial will not be required to discontinue their β-blocker therapy, and the dose of Compound 1 will be reduced to 2 to 5 mg.
# (§4) Compound 1 concentrations were measured in human plasma using high pressure liquid chromatography (HPLC) coupled with tandem mass spectrometry (MS/MS). This method was used for Compound 1 bioanalysis in all clinical trials to date, and all clinical data has been collected using plasma. A brief description of the method follows.
# (§5) Liquid-liquid extraction and HPLC/MS/MS was used to determine the concentration of Compound 1 in human plasma. An aliquot of the extract was injected onto an HPLC instrument that is coupled with a triple quadrupole mass spectrometer (Sciex API5500). A Lux 3u Cellulose-4 HPLC column (150×2.0 mm) from […], was used to separate Compound 1, from interfering compounds that may be present in the sample extract. The internal standard was a multi-deuterated analog of Compound 1 to ensure that the internal standard used in the assay had similar chemical properties to the analyte but a different mass for selective detection. The peak area of the product ion of Compound 1 was measured against the peak area of the product ion of the internal standard for determination of concentration.
# [2] = as above; type: in vivo, human; details: human, plasma, oral; read-out: concentrations associated with excessive pharmacological effect
# Text: as §2, §3, §4, §5
# [3] = Pharmacokinetics in Study Compound 1-002; type: in vivo; details: single oral doses, healthy men
# Procedure: In Study Compound 1-002, single doses from 1 mg to 48 mg were administered as an oral suspension to healthy men. […] Single doses of ≥12 mg of Compound 1 were associated with detectable reductions in LV contractility from baseline as assessed by 3 independent echocardiographic measures (left ventricular ejection fraction [LVEF], LV fractional shortening (LVFS), and LVOT velocity time integral [VTI]). At the highest dose studied in healthy subjects (48 mg), mean reduction in LVEF at any time point was −6% relative to baseline.
# as §4
# Liquid-liquid extraction and HPLC/MS/MS was used to determine the concentration of Compound 1 in human plasma. An aliquot of the extract was injected onto an HPLC instrument that is coupled with a triple quadrupole mass spectrometer (Sciex API5500). […] The peak area of the product ion of Compound 1 was measured against the peak area of the product ion of the internal standard for determination of concentration.
# [4] = system: subjects with symptomatic HCM and LVOT obstruction; experiment: Phase 2 open-label pilot study Pioneer-HCM-B (Cohort B); type: in vivo, human
# Procedure: as §3
# The following results were obtained generally following the procedures described in Example 3 and Example 5.
# smooth muscle myosin = smooth muscle myosin (Homo sapiens, UniProt P35749); experiment: Biochemical activity against smooth muscle myosin
# Sequence of smooth muscle myosin (P35749 whole entry): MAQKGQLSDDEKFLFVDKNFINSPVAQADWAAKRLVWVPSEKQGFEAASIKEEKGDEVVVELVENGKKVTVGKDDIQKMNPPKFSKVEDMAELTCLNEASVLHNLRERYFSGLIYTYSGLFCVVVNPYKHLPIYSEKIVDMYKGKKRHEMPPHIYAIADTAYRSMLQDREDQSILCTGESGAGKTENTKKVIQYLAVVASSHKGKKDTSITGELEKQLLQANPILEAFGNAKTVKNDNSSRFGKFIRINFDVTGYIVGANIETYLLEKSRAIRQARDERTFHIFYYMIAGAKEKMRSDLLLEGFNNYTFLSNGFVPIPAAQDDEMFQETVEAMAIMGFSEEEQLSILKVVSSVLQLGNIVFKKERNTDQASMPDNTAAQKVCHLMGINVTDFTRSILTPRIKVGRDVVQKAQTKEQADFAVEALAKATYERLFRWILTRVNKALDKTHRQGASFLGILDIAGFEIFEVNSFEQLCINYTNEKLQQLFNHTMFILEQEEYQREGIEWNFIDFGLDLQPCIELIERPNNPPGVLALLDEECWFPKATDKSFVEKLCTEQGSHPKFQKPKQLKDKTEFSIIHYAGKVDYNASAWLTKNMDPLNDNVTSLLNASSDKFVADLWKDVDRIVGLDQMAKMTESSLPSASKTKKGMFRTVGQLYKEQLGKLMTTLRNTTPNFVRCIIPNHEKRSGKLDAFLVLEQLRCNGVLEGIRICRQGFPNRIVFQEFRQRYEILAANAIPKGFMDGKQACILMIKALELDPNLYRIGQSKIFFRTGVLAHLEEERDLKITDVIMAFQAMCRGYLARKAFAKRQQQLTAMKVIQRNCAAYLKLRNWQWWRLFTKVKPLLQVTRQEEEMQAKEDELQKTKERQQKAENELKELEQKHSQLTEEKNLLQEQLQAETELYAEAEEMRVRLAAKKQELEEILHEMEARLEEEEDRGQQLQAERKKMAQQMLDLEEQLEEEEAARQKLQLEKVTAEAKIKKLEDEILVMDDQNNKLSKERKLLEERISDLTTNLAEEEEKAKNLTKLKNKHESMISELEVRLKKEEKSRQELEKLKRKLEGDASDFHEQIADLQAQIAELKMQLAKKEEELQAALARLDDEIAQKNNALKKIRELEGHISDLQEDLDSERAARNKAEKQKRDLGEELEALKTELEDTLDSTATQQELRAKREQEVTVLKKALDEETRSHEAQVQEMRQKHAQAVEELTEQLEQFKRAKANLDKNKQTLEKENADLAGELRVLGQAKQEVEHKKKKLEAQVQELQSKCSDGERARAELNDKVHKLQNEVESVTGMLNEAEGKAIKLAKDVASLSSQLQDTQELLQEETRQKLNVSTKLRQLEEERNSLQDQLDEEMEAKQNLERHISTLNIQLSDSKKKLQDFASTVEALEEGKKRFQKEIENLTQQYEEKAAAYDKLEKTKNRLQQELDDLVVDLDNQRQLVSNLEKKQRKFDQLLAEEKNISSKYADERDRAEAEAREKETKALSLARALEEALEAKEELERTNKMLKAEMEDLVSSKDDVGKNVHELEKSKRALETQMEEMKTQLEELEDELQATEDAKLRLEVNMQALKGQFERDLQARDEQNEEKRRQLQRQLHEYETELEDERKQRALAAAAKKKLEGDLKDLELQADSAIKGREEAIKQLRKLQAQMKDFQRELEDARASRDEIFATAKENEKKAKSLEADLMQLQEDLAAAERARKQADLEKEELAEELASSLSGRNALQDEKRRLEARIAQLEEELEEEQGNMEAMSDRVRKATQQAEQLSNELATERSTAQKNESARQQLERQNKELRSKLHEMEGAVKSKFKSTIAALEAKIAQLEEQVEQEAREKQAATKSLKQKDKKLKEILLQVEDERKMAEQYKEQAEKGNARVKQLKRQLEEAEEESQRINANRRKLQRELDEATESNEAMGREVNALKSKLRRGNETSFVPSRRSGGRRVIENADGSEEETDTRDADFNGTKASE
# Sequence of smooth muscle myosin (P60660 whole entry partner): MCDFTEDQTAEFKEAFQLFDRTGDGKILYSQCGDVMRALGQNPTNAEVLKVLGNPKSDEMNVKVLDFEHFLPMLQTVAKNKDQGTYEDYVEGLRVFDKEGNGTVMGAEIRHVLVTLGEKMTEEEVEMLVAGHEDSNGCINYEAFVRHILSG
# Sequence of smooth muscle myosin (P24844 whole entry partner): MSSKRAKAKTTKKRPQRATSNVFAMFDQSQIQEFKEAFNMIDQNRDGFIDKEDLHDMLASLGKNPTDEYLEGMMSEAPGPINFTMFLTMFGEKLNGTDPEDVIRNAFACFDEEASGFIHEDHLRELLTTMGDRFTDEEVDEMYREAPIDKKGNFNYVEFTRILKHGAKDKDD
# [5] = Pre-clinical acute or chronic administration, haemodynamics; type: in vivo
# healthy adult subjects = experiment: Study Compound 1-003: multiple ascending-dose (MAD) trial in healthy volunteers; type: in vivo, human
# Procedure: as §1
# In Study Compound 1-003, 4 cohorts of healthy adult subjects have been dosed, each scheduled to dose for 28 days. […] In cohort 3, 3 of 12 subjects who received blinded treatment (either Compound 1 12.5 mg or placebo QD) had diarrhea and/or abdominal cramps. One of these subjects was discontinued due to recurrence of diarrhea upon rechallenge, and the other 2 subjects were successfully restarted on study medication. The investigator considered these gastrointestinal AEs either mild or moderate in severity and likely related to study medication.
# Dosing in cohort 4 was stopped on Day 25 by the investigator, because 5 of 12 subjects who received blinded treatment (either Compound 1 25 mg or placebo QD) achieved the predefined stopping criterion for dose ascension of ≥20% reduction in LVEF. All subjects remained asymptomatic.
# [6] = system: healthy volunteers and HCM patients; experiment: Phase 1 program summary (three Phase 1 studies); type: in vivo, human
# Procedure: as §1
# [7] = 2 mg/day for 4 weeks, preliminary
# [8] = Cohort B (2-5 mg daily doses), mean ± SD
# [9] = Cohort B, baseline to Week 12, n 10
# [10] = 12.5 mg cohort, 28-day treatment
# [11] = 25 mg cohort treated for 25 days
structure (smiles),measurement,setting,value
"CC(C)n1c(=O)cc(N[C@@H](C)c2ccccc2)[nH]c1=O [Compound 1, (S)-3-Isopropyl-6-((1-phenylethyl)amino) pyrimidine-2, 4(1H,3H)-dione]",SAEs,healthy volunteers,No SAEs reported
same,severity of adverse events,healthy volunteers,all mild to moderate
same,number of AEs reported,healthy volunteers; in 33 subjects,54
same,effects accompanying the gradient reduction,[1]; Parts A and B,"improvement in symptoms, pVO2 during exercise, a decrease in NT pro-BNP and improvement in echocardiographic measures of diastolic function"
same,diastolic function,"[1]; Parts A and B, Tables 9 and 10",diastolic improvement
same,tolerability of the therapeutic concentration range,[1]; associated with limited decrease in LVEF,well tolerate
same,compliance of the left ventricle,"[1]; increase in LVEDV with reduction in LV filling pressure (E/e′), emerging data, Cohorts A and B",improving compliance of the left ventricle
same,LVEF maintained with clinical improvement in oHCM (symptom improvement and peak VO2),[1]; plasma concentrations of 350 to 700 ng/mL,≥ 55%
same,LVOT gradient level reached,"[1]; plasma concentrations of 350 to 700 ng/mL, generally",< 30 mm Hg
same,concentration at 12 weeks,[2],> 1000 ng/mL
same,half-life,"[3]; male, human, plasma, read-out: mean elimination half-life (converted)",~192 h
same,pharmacokinetic (PK) profile,[3],rapid absorption and subsequent distribution followed by a long elimination phase
same,LV filling pressure and diastolic peak mitral annular velocity,"[4]; 2 mg/day for 4 weeks, absence of a change in afterload",beneficial effects on LV filling pressure (↓E/e′ and NTpro-BNP) and in diastolic peak mitral annular velocity (e′)
same,LV systolic function at rest and immediately post-exercise,[4]; [7],not affected
same,effect on LVOT rest and exercise gradients,[4]; [7],consistent effect on LVOT rest and exercise gradients
same,NYHA functional class,"[4]; 12 weeks of Compound 1, 4 weeks of washout (FIG. 21)",improvement in NYHA functional class in individuals after 12 weeks and the reversal of improvement after 4 weeks of washout
same,patients with >1.5 mL/kg/min improvement in pVO2,[4]; Cohort B,*5 of 10 patients had >1.5 mL/kg/mm improvement in pVO2
same,patients with improved NYHA Class,[4]; Cohort B,8 of 10 and **Improved NYHA Class in 9 out of 10 patients
same,Resting Gradient Week 4,"[4]; Cohort B (2 mg/day), preliminary, mean ± SD, N 5, baseline 84 ± 76 (6)",59 ± 61 mm Hg
same,Septal e′ Week 4,"[4]; Cohort B (2 mg/day), preliminary, mean ± SD, N 6, baseline 3.9 ± 1.1 (6)",4.5 ± 1.4
same,Mean e′ Week 4,"[4]; Cohort B (2 mg/day), preliminary, mean ± SD, N 6, baseline 4.7 ± 1.0 (6)",5.7 ± 1.3
same,Lateral e′ Week 4,"[4]; Cohort B (2 mg/day), preliminary, mean ± SD, N 6, baseline 5.4 ± 1.0 (6)",7.0 ± 1.2
same,E/e′ Week 4,"[4]; Cohort B (2 mg/day), preliminary, mean ± SD, N 6, baseline 14.0 ± 3.4 (6)",10.7 ± 3.5
same,Post-exercise Gradient Week 4,"[4]; Cohort B (2 mg/day), preliminary, mean ± SD, N 6, baseline 70 ± 45 (6)",93 ± 56 mm Hg
same,Resting LVEF Week 4,"[4]; Cohort B (2 mg/day), preliminary, mean ± SD, N 6, baseline 71 ± 4 (6)",73 ± 6%
same,Stroke Volume Week 4,"[4]; Cohort B (2 mg/day), preliminary, mean ± SD, N 6, baseline 73.3 ± 6.5 (6)",77.8 ± 14.3 mL
same,Post-exercise LVEF Week 4,"[4]; Cohort B (2 mg/day), preliminary, mean ± SD, N 6, baseline 78 ± 9 (5)",76 ± 3%
same,NT-pro BNP Week 4,"[4]; Cohort B (2 mg/day), preliminary, mean ± SD, N 7, baseline 2162 ± 3601 (8)",1258 ± 1789 pg/mL
same,improvement in peak VO2 in 4 subjects,[4]; Cohort B (2-5 mg daily doses),≥ 2.9 mL/min/kg
same,Dyspnea numerical rating (signed change),[4]; [8],−3.0 ± 2.8
same,NYHA Class (signed change),[4]; [8],−1.0 ± 0.5
same,Peak VO2 (signed change),[4]; [8],+1.67 ± 2.3 mL/kg/min
same,Post-exercise peak LVOT gradient (signed change),[4]; [8],−25.0 ± 28.7 mmHg
same,Resting LVEF (signed change),[4]; [8],−5.5 ± 6.0%
same,Resting LVOT gradient (signed change),[4]; [8],−48.5 ± 48.0 mmHg
same,NT-proBNP Delta,"[4]; Cohort B, baseline to Week 12, n 9",−1195 ± 2770
same,Dyspnea score Delta,[4]; [9],−3.0 ± 2.8
same,E/e′ Delta,[4]; [9],−1.3 ± 4.6
same,LA Vol (index) Delta,[4]; [9],−6 ± 12 mL/m^2
same,LVEDV Delta,[4]; [9],6 ± 18
same,Lateral e′ Delta,[4]; [9],0.3 ± 2.2 cm/s
same,Dyspnea score Week 12,"[4]; Cohort B, baseline 4.0 ± 2.6, n 10",1.0 ± 0.7
same,Lateral e′ Week 12,"[4]; Cohort B, baseline 5.9 ± 1.0, n 10",6.1 ± 2.1 cm/s
same,E/e′ Week 12,"[4]; Cohort B, baseline 13.9 ± 3.5, n 10",12.6 ± 4.1
same,LA Vol (index) Week 12,"[4]; Cohort B, baseline 41 ± 20, n 10",35 ± 12 mL/m^2
same,LVEDV Week 12,"[4]; Cohort B, baseline 95 ± 15, n 10",101 ± 25
same,NT-proBNP Week 12,"[4]; Cohort B, baseline 1834 ± 3209, n 9",826 ± 1063
same,peak VO2,[4]; by week 12 (FIG. 23),improvement in peak VO2 by week 12
same,dyspnea,"[4]; throughout the trial, improvement reversed after 4 weeks of washout (FIG. 22)",rapid improvement in peak in dyspnea
same,activity against smooth muscle myosin,smooth muscle myosin,biochemically inactive
same,"myocardial contractility, LV end-diastolic dimensions, blood pressure",[5]; acute or chronic administration,"decreased myocardial contractility and increased LV end-diastolic dimensions while preserving systemic arterial blood pressure and, LV end-diastolic pressure"
same,end-diastolic pressures and end-diastolic stiffness,[5]; versus acute effects of other negative inotropes,preserves end-diastolic pressures as well as the estimated (linear) end-diastolic stiffness despite marked increases in preload (EDV)
same,PD evidence of reduced contractility,healthy adult subjects; 12.5 mg QD and 25 mg QD groups,PD evidence of reduced contractility was apparent
same,Responders %,healthy adult subjects; [10],30%
same,Responders n,healthy adult subjects; [10],3/10
same,Responders n,"healthy adult subjects; 18.5 mg cohort, 28-day treatment",10/10
same,Responders %,healthy adult subjects; [11],100%
same,Responders n,healthy adult subjects; [11],10/10
same,Responders %,"healthy adult subjects; 25 mg cohort, 28-day treatment",100%
same,subjects with diarrhea and/or abdominal cramps,"healthy adult subjects; cohort 3, blinded treatment (Compound 1 12.5 mg or placebo QD)",3 of 12
same,gastrointestinal AEs,healthy adult subjects; cohort 4 (Compound 1 25 mg or placebo),No gastrointestinal AEs were reported
same,subjects achieving stopping criterion of ≥20% reduction in LVEF,"healthy adult subjects; cohort 4, blinded treatment (Compound 1 25 mg or placebo QD), dosing stopped on Day 25",5 of 12
same,AE severity and SAEs,healthy adult subjects; multiple doses up to 25 mg QD,"All AEs were mild or moderate in severity, and there were no SAEs"
same,tolerability,"healthy adult subjects; multiple doses up to 25 mg QD, healthy adults",well tolerated
same,proof of mechanism: cardiac contractility,[6],dependent reduction in cardiac contractility
